From patent publication EP0338887B1, “Phosphonoalkylpurine derivatives” (MERRELL DOW PHARMACEUTICALS INC., priority 1988, dated 1989)
Where two headings read alike, the source gives them in different places. One block for each molecule: values may come before it.

Assays:
Format in all cases: biochemical
[1] = target: T1, purine nucleoside phosphorylase (PNP) (Rattus norvegicus, UniProt P85973); assay: PNP inhibition, coupled xanthine oxidase method of Kalckar (rat erythrocyte PNP)
T1 construct: Rat Erythrocytes; from tissue; host or cells: rat erythrocytes
T1 sequence (P85973 1-289): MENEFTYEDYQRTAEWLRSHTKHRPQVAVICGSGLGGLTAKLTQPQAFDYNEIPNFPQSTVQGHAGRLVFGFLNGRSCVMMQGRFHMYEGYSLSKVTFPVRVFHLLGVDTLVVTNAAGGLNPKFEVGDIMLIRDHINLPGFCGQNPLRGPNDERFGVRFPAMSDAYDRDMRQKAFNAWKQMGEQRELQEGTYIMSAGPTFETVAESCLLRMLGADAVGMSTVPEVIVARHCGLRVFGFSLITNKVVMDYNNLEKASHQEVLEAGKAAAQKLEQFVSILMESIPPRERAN

[2] = target: T2, purine nucleoside phosphorylase (PNP) (Bos taurus, UniProt P55859); assay: PNP inhibition, coupled xanthine oxidase method of Kalckar (calf spleen PNP)
T2 construct: Calf Spleen; from tissue; host or cells: calf spleen
T2 sequence (P55859 1-289): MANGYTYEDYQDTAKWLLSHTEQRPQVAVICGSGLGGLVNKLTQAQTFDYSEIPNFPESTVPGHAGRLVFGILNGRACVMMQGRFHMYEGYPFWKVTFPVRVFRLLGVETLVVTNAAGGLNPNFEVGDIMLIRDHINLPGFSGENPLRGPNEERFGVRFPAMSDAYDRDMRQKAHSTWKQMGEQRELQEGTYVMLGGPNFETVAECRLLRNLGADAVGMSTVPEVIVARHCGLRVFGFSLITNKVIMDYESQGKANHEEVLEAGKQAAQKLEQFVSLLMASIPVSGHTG
Description: (§1) Purine nucleoside phophorylase (PNP) inhibitory activity can be determined by the coupled xanthine oxidase method of Kalckar, using inosine as the substrate (H.M.Kalckar, J. Biol. Chem. 167, 429-443 (1947)). […] The Ki for representative members of the compounds of formula 1 are tabulated in table 1 and are compared to the KM values of the substrate inosine using PNP from various sources. […] The presence of 2'-deoxyguanosine (about 10 µM), a natural metabolite, appears to be important in in vitro activity.

[3] = target: T3, purine nucleoside phosphorylase (PNP) (Homo sapiens, UniProt P00491); assay: PNP inhibition, coupled xanthine oxidase method of Kalckar (human erythrocyte PNP)
T3 construct: Human Erythrocytes; from tissue; host or cells: human erythrocytes
T3 sequence (P00491 1-289): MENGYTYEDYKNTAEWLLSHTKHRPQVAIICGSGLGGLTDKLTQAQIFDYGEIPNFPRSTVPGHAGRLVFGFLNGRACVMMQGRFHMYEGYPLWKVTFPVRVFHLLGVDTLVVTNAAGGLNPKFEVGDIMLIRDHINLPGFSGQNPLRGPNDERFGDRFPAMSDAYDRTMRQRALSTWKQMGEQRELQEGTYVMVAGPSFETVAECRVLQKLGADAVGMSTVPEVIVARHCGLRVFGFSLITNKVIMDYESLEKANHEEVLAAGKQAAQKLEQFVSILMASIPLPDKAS

[4] = substrate: OC[C@H]1O[C@@H](n2cnc3c(O)ncnc32)[C@H](O)[C@@H]1O; assay: PNP inhibition, coupled xanthine oxidase method of Kalckar (calf spleen PNP); details: other: substrate KM for comparison; pH 7.4
Description: as §1

[5] = substrate: OC[C@H]1O[C@@H](n2cnc3c(O)ncnc32)[C@H](O)[C@@H]1O; assay: PNP inhibition, coupled xanthine oxidase method of Kalckar (human erythrocyte PNP); details: other: substrate KM for comparison; pH 7.4
[6] = substrate: OC[C@H]1O[C@@H](n2cnc3c(O)ncnc32)[C@H](O)[C@@H]1O; assay: PNP inhibition, coupled xanthine oxidase method of Kalckar (rat erythrocyte PNP); details: other: substrate KM for comparison; pH 7.4

Ki [1]: 3.5e-08 M
Molecule: Nc1nc2c(ncn2CCCCC(F)(F)P(=O)(O)O)c(=O)[nH]1 [9-(5-phosphono-5,5-difluoropentyl)guanine]

Molecule: Nc1nc2c(ncn2CCCCCC(F)(F)P(=O)(O)O)c(=O)[nH]1 [9-(6-phosphono-6,6-difluorohexyl)guanine]
Ki [2]: 3.2e-07 M | Ki [1]: 1.8e-07 M | Ki [3]: 2.8e-07 M

Molecule: CCOP(=O)(O)C(F)(F)CCCCCCn1cnc2c(=O)[nH]c(N)nc21 [9-(7-phosphono-7,7-difluoroheptyl)guanine, ethyl ester]
Ki ([2]; apparent dissociation constant, 1 mM inorganic phosphate, 0.1 M HEPES buffer (pH 7.4), inosine 0.05 mM to 0.15 mM as substrate, read-out: Ki (M) PNP SOURCE Calf Spleen): 3.3e-06 M | Ki [1]: 2.8e-07 M | Ki ([3]; apparent dissociation constant, 1 mM inorganic phosphate, 0.1 M HEPES buffer (pH 7.4), inosine 0.05 mM to 0.15 mM as substrate, read-out: Ki (M) PNP SOURCE Human Erythrocytes): 8e-07 M

Molecule: Nc1nc2c(ncn2CCCCCCC(F)(F)P(=O)(O)O)c(=O)[nH]1 [9-(7-phosphono-7,7-difluoroheptyl)guanine]
Ki [2]: 1.5e-07 M | Ki [1]: 9.6e-09 M | Ki [3]: 8e-08 M

Molecule: O=c1[nH]cnc2c1ncn2CCCCCCC(F)(F)P(=O)(O)O [9-(7-phosphono-7,7-difluoroheptyl)hypoxanthine]
Ki [2]: 2.2e-06 M | Ki [1]: 1.6e-07 M | Ki [3]: 1e-07 M

Molecule: Nc1nc(O)c2ncn(CCCCCCCP(=O)(O)O)c2n1 [9-(7-phosphono-heptyl)guanine]
Ki [2]: 1.2e-06 M | Ki ([1]; apparent dissociation constant, 1 mM inorganic phosphate, 0.1 M HEPES buffer (pH 7.4), inosine 0.05 mM to 0.15 mM as substrate, read-out: Ki (M) PNP SOURCE Rat Erythrocytes): 7.5e-08 M | Ki [3]: 6.8e-07 M

Molecule: Nc1nc2c(ncn2CCCCCCCC(F)(F)P(=O)(O)O)c(=O)[nH]1 [9-(8-phosphono-8,8-difluorooctyl)guanine]
Ki [2]: 6.2e-07 M | Ki [1]: 4.6e-09 M | Ki [3]: 1.9e-07 M

B1: purine nucleoside phosphorylase (PNP) (Bos taurus) (protein)
chain: MANGYTYEDYQDTAKWLLSHTEQRPQVAVICGSGLGGLVNKLTQAQTFDYSEIPNFPESTVPGHAGRLVFGILNGRACVMMQGRFHMYEGYPFWKVTFPVRVFRLLGVETLVVTNAAGGLNPNFEVGDIMLIRDHINLPGFSGENPLRGPNEERFGVRFPAMSDAYDRDMRQKAHSTWKQMGEQRELQEGTYVMLGGPNFETVAECRLLRNLGADAVGMSTVPEVIVARHCGLRVFGFSLITNKVIMDYESQGKANHEEVLEAGKQAAQKLEQFVSLLMASIPVSGHTG
notes: Calf Spleen; from tissue; host or cells: calf spleen
Km [4]: 28 x 10⁻⁶ M

B2: purine nucleoside phosphorylase (PNP) (Homo sapiens) (protein)
chain: MENGYTYEDYKNTAEWLLSHTKHRPQVAIICGSGLGGLTDKLTQAQIFDYGEIPNFPRSTVPGHAGRLVFGFLNGRACVMMQGRFHMYEGYPLWKVTFPVRVFHLLGVDTLVVTNAAGGLNPKFEVGDIMLIRDHINLPGFSGQNPLRGPNDERFGDRFPAMSDAYDRTMRQRALSTWKQMGEQRELQEGTYVMVAGPSFETVAECRVLQKLGADAVGMSTVPEVIVARHCGLRVFGFSLITNKVIMDYESLEKANHEEVLAAGKQAAQKLEQFVSILMASIPLPDKAS
notes: Human Erythrocytes; from tissue; host or cells: human erythrocytes
Km [5]: 70 x 10⁻⁶ M

B3: purine nucleoside phosphorylase (PNP) (Rattus norvegicus) (protein)
chain: MENEFTYEDYQRTAEWLRSHTKHRPQVAVICGSGLGGLTAKLTQPQAFDYNEIPNFPQSTVQGHAGRLVFGFLNGRSCVMMQGRFHMYEGYSLSKVTFPVRVFHLLGVDTLVVTNAAGGLNPKFEVGDIMLIRDHINLPGFCGQNPLRGPNDERFGVRFPAMSDAYDRDMRQKAFNAWKQMGEQRELQEGTYIMSAGPTFETVAESCLLRMLGADAVGMSTVPEVIVARHCGLRVFGFSLITNKVVMDYNNLEKASHQEVLEAGKAAAQKLEQFVSILMESIPPRERAN
notes: Rat Erythrocytes; from tissue; host or cells: rat erythrocytes
Km [6]: 80 x 10⁻⁶ M
